Reference: publication PMC6155299, “Synthesis and Evaluation of New Pyrazoline Derivatives as Potential Anticancer Agents in HepG-2 Cell Line” (Molecules : A Journal of Synthetic Chemistry and Natural …, 2017)
Where two headings read alike, the source gives them in different places.

What was measured:
HepG-2 cells [1] = experiment: MTT assay, cytotoxic effects on HepG-2 cells; assay type: cell-based, human; conditions: 48 h
Procedure: (§1) Primary hepatocytes were isolated from male SD rats weighing 250–300 g using a modified in situ collagenase perfusion method and then the cells were cultured in Dulbecco’s Modified Eagle’s Medium (DMEM) with 2 g/L bovine serum albumin (BSA) and 50 mg/L gentamicin. HepG-2 cells were incubated in RPMI 1640 medium supplemented with 10% fetal bovine serum (FBS) and 1% penicillin–streptomycin liquid. Cells were incubated at 37 °C in a humidified atmosphere of 95% air and 5% CO2. Stock solutions of compounds and cisplatin were prepared in dimethyl sulfoxide (DMSO), then added to fresh culture medium to obtain final concentrations.
Next, compounds b14 and b18 were prepared in five different concentrations (20 µM, 40 µM, 60 µM, 80 µM, 100 µM), and compounds b15, b16, and b17, along with cisplatin, were prepared in seven different concentrations (2.5 µM, 5 µM, 7.5 µM, 10 µM, 20 µM, 40 µM, 60 µM). A suspension of growing cells (50,000/mL) was prepared, and 100 µL/well dispensed into 96-well plates, yielding a density of 5000 cells/well. The cells were incubated for 24 h before adding the pyrazoline derivatives. The optimal cell number for cytotoxicity assays was determined in preliminary experiments. At the end of the incubation period, the medium was removed and 100 µL of different concentrations of pyrazoline derivatives were added to wells for 24 h and 48 h. Following the exposure period, 20 µL of MTT (5 mg/mL) were added to cells and incubated for a further 4 h at 37 °C. The medium was removed and the formazan crystals were solubilized by adding 150 µL DMSO to each well. After 10 min of shaking, the absorbance was measured at 550 nm using a FilterMax F5 Multi-Mode Microplate Reader (Energy Chemical, Shanghai, China). Cells were treated with each compound with four replicates per concentration, and each experiment was conducted at least three times. Dose–inhibition rate curves and IC50 values, defined as the drug concentrations which reduced absorbance to 50% of control values, were then generated.

primary hepatocytes = experiment: MTS assay, cytotoxicity against primary hepatocytes; assay type: cell-based, rat; conditions: for IC50: Rattus norvegicus, Hepatocyte, 48 h; for cytotoxicity against primary hepatocytes (in words): compared with HepG-2
Procedure: as §1
The cytotoxicological activity of compounds b5, b9, and b14–18 were evaluated against primary hepatocytes using the MTS assay (Cell Titer 96® Aqueous Cell Proliferation Assay, Promega, Cat. No. G5421) as a fast and sensitive quantification of cell proliferation and viability. The concentrations of compounds were prepared in seven different concentrations (2.5 µM, 5 µM, 10 µM, 20 µM, 40 µM, 80 µM, 160 µM). Cells were seeded into 96-well plates at a density of 26,000 cells/well. The plates were incubated for 24 h prior to any treatment. At the end of this period, the medium was removed and 100 µL of different concentrations of pyrazoline derivatives were added to wells for 48 h. Following the exposure period, 20 μL of the combined MTS/PMS solution was added to cells and incubated for a further 2 h at 37 °C, then the absorbance was recorded at 490 nm using an ELISA Plate Reader (ELISA, Emeryville, CA, USA). The values of IC50, the effective concentration at which 50% of the primary hepatocytes were inhibited, were calculated to evaluate the cytotoxic activities.

HepG-2 cells [2] = experiment: Cell cycle analysis by flow cytometry (PI); assay type: cell-based, human; conditions: 24 h
Procedure: Based on the results of the cytotoxicity assay, compound b17 was selected for further mechanistic study with HepG-2 cells. For flow cytometry analysis of DNA content, approximately 1.5 × 10^5 HepG-2 cells/well in exponential growth mode were plated in 6-well plates and allowed to adhere, then treated with different concentrations of compound b17 for 24 h. After incubation, the cells were collected, centrifuged, and fixed with ice-cold ethanol (70%). The cells were treated with RNase A and stained with PI. Samples were analyzed on a BD Accuri C6 flow cytometer (BD, New York, NY, USA). DNA histograms were analyzed using ModFit for Windows.

HepG-2 cells [3] = experiment: Annexin-V assay (annexin V/PI flow cytometry); assay type: cell-based, human; conditions: 12 h
Procedure: Approximately 1.5 × 10^5 HepG-2 cells/well were plated in 6-well plates and allowed to adhere. After 24 h, the medium was replaced with fresh culture medium containing compound b17 at final concentrations of 0 µM, 0.9 µM, 2.7 µM, and 4.5 µM. Cells were harvested after 12 h. The cells were trypsinized, washed in phosphate-buffered saline (PBS), and centrifuged at 1000 rpm for 5 min. The cells were then resuspended in 200 µL of staining solution (containing 10 µL PI and 5 µL Annexin V–PE in binding buffer), mixed gently, and incubated for 15 min at 25 °C in the dark. The samples were later analyzed with a BD Accuri™ C6 flow cytometer.

[4] = Homo sapiens, HepG2, HepG-2 cell line, read-out: IC50 HepG-2
[5] = Homo sapiens, HepG2, HepG-2 cells, read-out: IC50 against HepG-2 cells

Row | SMILES | IC50 (HepG-2 cells [1]; [4]) [µM] | melting point [°C] | IC50 (primary hepatocytes) [µM] | other results
1 | COc1cc(C2CC(c3ccccc3O)=NN2C(=O)c2cc([N+](=O)[O-])cc([N+](=O)[O-])c2)cc(OC)c1O (centres unmarked) [b13, (3,5-Dinitrophenyl)-[5-(4-hydroxy-3,5-dimethoxyphenyl)-3-(2-hydroxyphenyl)-4,5-dihydro-pyrazol-1-yl]-methanone] | > 50 | 240.4 to 240.9 | – | –
2 | COc1cc(C2CC(c3ccccc3O)=NN2)cc(Br)c1O (centres unmarked) [b3, 2-Bromo-4-[5-(2-hydroxyphenyl)-3,4-dihydro-2H-pyrazol-3-yl]-6-methoxy-phenol] | > 50 | 181.8 to 183.9 | – | –
3 | COc1cc(C2CC(c3ccccc3O)=NN2C(=O)c2ccco2)cc(OC)c1O (centres unmarked) [b16, Furan-2-yl-[5-(4-hydroxy-3,5-dimethoxyphenyl)-3-(2-hydroxyphenyl)-4,5-dihydro-pyrazol-1-yl]-methanone] | 4.61 ± 1.27 | 201.1 to 203.7 | 20.7 ± 1.72 | –
4 | N.N.[Cl][Pt][Cl] [Cisplatin, cisplatin, reference compound] | – | – | – | IC50 (HepG-2 cells [1]; HepG-2 cell line, read-out: IC50 HepG-2): 8.45 ± 1.05 µM
5 | COc1cc(C2CC(c3ccc(C)cc3)=NN2c2ccccc2)cc(OC)c1OC (centres unmarked) [b19, 1-Phenyl-3-p-tolyl-5-(3,4,5-trimethoxyphenyl)-4,5-dihydro-1H-pyrazole] | > 50 | 137.9 to 140.3 | – | –
6 | COc1cc(C2CC(c3ccccc3O)=NN2C(=O)c2ccc3ccccc3c2)cc(OC)c1O (centres unmarked) [b14, [5-(4-Hydroxy-3,5-dimethoxyphenyl)-3-(2-hydroxyphenyl)-4,5-dihydro-pyrazol-1-yl]-naphthalen-2-yl-methanone] | 18 ± 1.37 | 185.5 to 186.5 | 22.7 ± 1.21 | –
7 | COc1cc(C2CC(c3ccccc3O)=NN2)cc(OC)c1O (centres unmarked) [b1, 4-[5-(2-Hydroxyphenyl)-3,4-dihydro-2H-pyrazol-3-yl]-2,6-dimethoxy-phenol] | > 50 | 140.3 to 140.7 | – | –
8 | COc1cc(C2CC(c3ccc([N+](=O)[O-])cc3)=NN2)cc(OC)c1O (centres unmarked) [b2, 2,6-Dimethoxy-4-[5-(4-nitrophenyl)-3,4-dihydro-2H-pyrazol-3-yl]-phenol] | > 50 | 140.7 to 141.1 | – | –
9 | COc1cc(C2CC(c3ccccc3O)=NN2C(=O)c2ccccc2[N+](=O)[O-])cc(OC)c1O (centres unmarked) [b10, [5-(4-Hydroxy-3,5-dimethoxyphenyl)-3-(2-hydroxyphenyl)-4,5-dihydro-pyrazol-1-yl]-(2-nitrophenyl)-methanone] | > 50 | 194.6 to 194.7 | – | –
10 | COc1cc(C2CC(c3ccccc3O)=NN2S(=O)(=O)c2ccc([N+](=O)[O-])cc2)cc(OC)c1O (centres unmarked) [b8, 4-[5-(2-Hydroxyphenyl)-2-(4-nitro-benzenesulfonyl)-3,4-dihydro-2H-pyrazol-3-yl]-2,6-dimethoxy-phenol] | > 50 | 195.5 to 197 | – | –
11 | COc1cc(C2CC(c3ccccc3O)=NN2C(=O)c2cccs2)cc(OC)c1O (centres unmarked) [b15, [5-(4-Hydroxy-3,5-dimethoxyphenyl)-3-(2-hydroxyphenyl)-4,5-dihydro-pyrazol-1-yl]-thiophen-2-yl-methanone] | 4.51 ± 1.49 | 196.1 to 197.2 | 19.24 ± 0.08 | –
12 | COc1cc(C2CC(c3ccccc3O)=NN2S(=O)(=O)c2ccccc2)cc(OC)c1O (centres unmarked) [b5, 4-[2-Benzenesulfonyl-5-(2-hydroxyphenyl)-3,4-dihydro-2H-pyrazol-3-yl]-2,6-dimethoxy-phenol] | 28.8 ± 1.32 | 163.1 to 164.4 | 35.1 ± 2.21 | IC50 (HepG-2 cells [1]; [5]): < 50 µM; cytotoxicity against primary hepatocytes (in words) (primary hepatocytes): lower cytotoxicological activity
13 | COc1cc(C2CC(c3ccccc3O)=NN2C(=O)c2cc3ccccc3s2)cc(OC)c1O (centres unmarked) [b17, Benzo[b]thiophen-2-yl-[5-(4-hydroxy-3,5-dimethoxyphenyl)-3-(2-hydroxyphenyl)-4,5-dihydro-pyrazol-1-yl]-methanone] | 3.57 ± 1.39 | 169.2 to 170.1 | 33.5 ± 2.33 | cytotoxicity against primary hepatocytes (in words) (primary hepatocytes): low cytotoxicity; cells in G1 phase (Dip G1) (HepG-2 cells [2]; HepG-2, 0.9 µM): 56.88%; cells in G2/M phase (Dip G2) (HepG-2 cells [2]; HepG-2, 0.9 µM): 16.90%; cells in S phase (Dip S) (HepG-2 cells [2]; HepG-2, 0.9 µM): 26.22%; cells in G1 phase (Dip G1) (HepG-2 cells [2]; HepG-2, 2.7 µM): 33.02%; cells in G2/M phase (Dip G2) (HepG-2 cells [2]; HepG-2, 2.7 µM): 41.50%; cells in S phase (Dip S) (HepG-2 cells [2]; HepG-2, 2.7 µM): 25.48%; cells in G1 phase (Dip G1) (HepG-2 cells [2]; HepG-2, 4.5 µM): 3.11%; cells in S phase (Dip S) (HepG-2 cells [2]; HepG-2, 4.5 µM): 13.89%; percentage of cell apoptosis (HepG-2 cells [3]; HepG-2, 0.9 µM): 7.6%; percentage of cell apoptosis (HepG-2 cells [3]; HepG-2, 2.7 µM): 8.7%; percentage of cell apoptosis (HepG-2 cells [3]; HepG-2, 4.5 µM): 10.2%
14 | COc1cc(C2CC(c3ccccc3O)=NN2C(=O)c2ccc([N+](=O)[O-])cc2)cc(OC)c1O (centres unmarked) [b12, [5-(4-Hydroxy-3,5-dimethoxyphenyl)-3-(2-hydroxyphenyl)-4,5-dihydro-pyrazol-1-yl]-(4-nitrophenyl)-methanone] | > 50 | 250.1 to 251.2 | – | –
15 | COc1cc(C2CC(c3ccccc3O)=NN2C(=O)c2cccc([N+](=O)[O-])c2)cc(OC)c1O (centres unmarked) [b11, [5-(4-Hydroxy-3,5-dimethoxyphenyl)-3-(2-hydroxyphenyl)-4,5-dihydro-pyrazol-1-yl]-(3-nitrophenyl)-methanone] | > 50 | 207.7 to 209.3 | – | –
16 | COc1cc(C2CC(c3ccccc3O)=NN2S(=O)(=O)c2cccc([N+](=O)[O-])c2)cc(OC)c1O (centres unmarked) [b7, 4-[5-(2-Hydroxyphenyl)-2-(3-nitro-benzenesulfonyl)-3,4-dihydro-2H-pyrazol-3-yl]-2,6-dimethoxy-phenol] | > 50 | 131.9 to 133.5 | – | –
17 | COc1cc(C2CC(c3ccccc3O)=NN2S(=O)(=O)c2ccccc2[N+](=O)[O-])cc(OC)c1O (centres unmarked) [b6, 4-[5-(2-Hydroxyphenyl)-2-(2-nitro-benzenesulfonyl)-3,4-dihydro-2H-pyrazol-3-yl]-2,6-dimethoxy-phenol] | > 50 | 151.1 to 152.8 | – | –
18 | COc1cc(C2CC(c3ccccc3O)=NN2S(=O)(=O)c2ccc(C)cc2)cc(OC)c1O (centres unmarked) [b9, 4-[5-(2-Hydroxyphenyl)-2-(toluene-4-sulfonyl)-3,4-dihydro-2H-pyrazol-3-yl]-2,6-dimethoxy-phenol] | 12 ± 1.83 | 194.6 to 194.7 | 29.7 ± 2.43 | IC50 (HepG-2 cells [1]; [5]): < 50 µM; cytotoxicity against primary hepatocytes (in words) (primary hepatocytes): lower cytotoxicological activity
19 | COc1cc(C2CC(c3ccccc3O)=NN2c2ccccc2)cc(OC)c1O (centres unmarked) [b18, 4-[5-(2-Hydroxyphenyl)-2-phenyl-3,4-dihydro-2H-pyrazol-3-yl]-2,6-dimethoxy-phenol] | 28.5 ± 1.34 | 169.7 to 170.8 | 50.7 ± 3.21 | –
20 | COc1cc(C2CC(c3ccc([N+](=O)[O-])cc3)=NN2)cc(Br)c1O (centres unmarked) [b4, 2-Bromo-6-methoxy-4-[5-(4-nitrophenyl)-3,4-dihydro-2H-pyrazol-3-yl]-phenol] | > 50 | 208.6 to 208.9 | – | –
